# According to patent US10670605B2, “Cysteine reactive probes and uses thereof” (The Scripps Research Institute, priority 2015, dated 2020):
# What was measured:
# Assay in all cases: Competitive isoTOP-ABPP in situ (fragment-treated cells)
# Format in all cases: cell-based
# Details in all cases: 200 μM, insitu
# [1] = target: T1, cysteines in MDA-MB-231 and Ramos cells (Homo sapiens, UniProt P78417)
# T1 sequence (P78417 1-241): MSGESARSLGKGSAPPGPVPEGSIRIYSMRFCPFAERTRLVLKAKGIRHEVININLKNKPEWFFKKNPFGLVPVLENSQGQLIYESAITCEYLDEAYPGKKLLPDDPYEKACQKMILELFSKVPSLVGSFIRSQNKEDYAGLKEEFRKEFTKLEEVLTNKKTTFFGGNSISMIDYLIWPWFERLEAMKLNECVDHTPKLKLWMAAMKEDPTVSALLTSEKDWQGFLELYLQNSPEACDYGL
# [2] = target: T2, cysteines in MDA-MB-231 and Ramos cells (Homo sapiens, UniProt Q9Y277)
# T2 sequence (Q9Y277 1-283): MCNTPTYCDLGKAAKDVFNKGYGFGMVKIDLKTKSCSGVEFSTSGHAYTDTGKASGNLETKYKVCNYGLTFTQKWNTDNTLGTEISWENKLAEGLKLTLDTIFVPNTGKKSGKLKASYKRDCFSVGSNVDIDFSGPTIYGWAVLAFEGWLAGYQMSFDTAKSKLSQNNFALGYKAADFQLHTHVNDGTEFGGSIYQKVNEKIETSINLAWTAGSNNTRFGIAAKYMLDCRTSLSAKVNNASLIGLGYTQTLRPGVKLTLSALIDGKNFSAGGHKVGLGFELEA
# [3] = target: T3, cysteines in MDA-MB-231 and Ramos cells (Homo sapiens, UniProt P31943)
# T3 sequence (P31943 1-449): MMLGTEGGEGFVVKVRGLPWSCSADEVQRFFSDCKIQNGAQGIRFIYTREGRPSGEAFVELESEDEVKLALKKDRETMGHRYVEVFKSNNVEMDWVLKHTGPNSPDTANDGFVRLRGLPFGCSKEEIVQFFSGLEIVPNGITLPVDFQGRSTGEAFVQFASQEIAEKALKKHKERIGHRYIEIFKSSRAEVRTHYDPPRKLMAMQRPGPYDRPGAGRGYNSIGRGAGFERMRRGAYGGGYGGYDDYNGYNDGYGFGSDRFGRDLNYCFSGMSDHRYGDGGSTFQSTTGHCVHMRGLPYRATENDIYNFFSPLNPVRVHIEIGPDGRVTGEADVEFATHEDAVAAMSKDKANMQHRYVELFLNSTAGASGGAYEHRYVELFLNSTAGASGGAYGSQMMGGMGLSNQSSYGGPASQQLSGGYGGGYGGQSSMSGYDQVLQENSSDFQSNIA
# [4] = target: T4, cysteines in MDA-MB-231 and Ramos cells (Homo sapiens, UniProt P24752)
# T4 sequence (P24752 34-427): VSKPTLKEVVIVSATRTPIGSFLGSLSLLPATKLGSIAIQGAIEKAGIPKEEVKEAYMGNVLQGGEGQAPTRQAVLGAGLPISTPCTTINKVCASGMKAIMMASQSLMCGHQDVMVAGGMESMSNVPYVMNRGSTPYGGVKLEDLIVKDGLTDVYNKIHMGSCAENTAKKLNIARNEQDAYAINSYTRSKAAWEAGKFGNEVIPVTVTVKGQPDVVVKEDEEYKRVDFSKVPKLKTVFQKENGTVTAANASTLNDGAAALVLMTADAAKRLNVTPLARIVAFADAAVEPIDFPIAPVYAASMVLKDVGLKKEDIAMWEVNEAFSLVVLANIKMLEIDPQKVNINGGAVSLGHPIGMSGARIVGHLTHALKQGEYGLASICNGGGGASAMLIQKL
# [5] = target: T5, cysteines in MDA-MB-231 and Ramos cells (Homo sapiens, UniProt Q9BQ69)
# T5 sequence (Q9BQ69 1-325): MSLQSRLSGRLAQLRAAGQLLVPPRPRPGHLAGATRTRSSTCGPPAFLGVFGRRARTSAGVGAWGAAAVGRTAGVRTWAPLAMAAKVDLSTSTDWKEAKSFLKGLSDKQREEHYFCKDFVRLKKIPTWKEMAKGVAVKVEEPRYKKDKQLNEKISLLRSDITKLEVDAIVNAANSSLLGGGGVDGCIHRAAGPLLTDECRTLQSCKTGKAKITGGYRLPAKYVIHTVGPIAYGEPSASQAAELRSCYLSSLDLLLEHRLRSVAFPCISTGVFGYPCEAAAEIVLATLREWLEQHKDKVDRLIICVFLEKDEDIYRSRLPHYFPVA
# [6] = target: T6, cysteines in MDA-MB-231 and Ramos cells (Homo sapiens, UniProt Q9NYL9)
# T6 sequence (Q9NYL9 1-352): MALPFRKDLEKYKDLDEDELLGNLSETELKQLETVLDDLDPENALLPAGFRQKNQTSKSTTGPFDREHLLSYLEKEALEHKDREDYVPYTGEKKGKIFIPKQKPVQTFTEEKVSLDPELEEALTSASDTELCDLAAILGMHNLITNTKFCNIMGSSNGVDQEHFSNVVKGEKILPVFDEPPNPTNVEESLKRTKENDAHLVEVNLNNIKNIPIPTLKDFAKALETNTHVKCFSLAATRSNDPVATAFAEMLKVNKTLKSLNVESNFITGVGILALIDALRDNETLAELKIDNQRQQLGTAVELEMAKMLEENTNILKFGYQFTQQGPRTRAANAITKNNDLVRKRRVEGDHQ
# [7] = target: T7, cysteines in MDA-MB-231 and Ramos cells (Homo sapiens, UniProt Q9HAV7)
# T7 sequence (Q9HAV7 28-217): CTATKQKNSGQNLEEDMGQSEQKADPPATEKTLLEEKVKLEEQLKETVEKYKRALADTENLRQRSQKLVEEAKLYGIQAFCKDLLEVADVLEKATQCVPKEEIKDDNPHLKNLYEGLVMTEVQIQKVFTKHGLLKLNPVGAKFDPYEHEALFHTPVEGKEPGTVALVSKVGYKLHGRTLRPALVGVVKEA
isoTOP-ABPP ratio P78417_C32 [1]; 231,isoTOP-ABPP ratio P78417_C32 ([1]; ramos),isoTOP-ABPP ratio Q9Y277_C65 [2]; 231,isoTOP-ABPP ratio P31943_C267 [3]; 231,isoTOP-ABPP ratio P31943_C267 ([3]; ramos),isoTOP-ABPP ratio P24752_C119 [4]; 231,isoTOP-ABPP ratio P24752_C413 [4]; 231,isoTOP-ABPP ratio P24752_C119 ([4]; ramos),isoTOP-ABPP ratio P24752_C413 ([4]; ramos),isoTOP-ABPP ratio Q9BQ69_C186 [5]; 231,"isoTOP-ABPP ratio, P24752_C126 [4]; 231","isoTOP-ABPP ratio, P24752_C196 [4]; 231",isoTOP-ABPP ratio Q9NYL9_C132 [6]; 231,isoTOP-ABPP ratio Q9HAV7_C124 [7]; 231,"isoTOP-ABPP ratio, P24752_C126 ([4]; ramos)","isoTOP-ABPP ratio, P24752_C196 ([4]; ramos)",isoTOP-ABPP ratio Q9NYL9_C132 ([6]; ramos),isoTOP-ABPP ratio Q9BQ69_C186 ([5]; ramos),isoTOP-ABPP ratio Q9HAV7_C124 ([7]; ramos),isoTOP-ABPP ratio Q9Y277_C65 ([2]; ramos),SMILES
20.0,20.0,1.0,1.1,1.2,2.1,3.5,2.8,20.0,1.4,–,–,–,–,–,–,–,–,–,–,O=C(CCl)NCCc1c[nH]c2ccccc12 [compound 13]
20.0,–,1.2,–,–,1.0,1.0,–,–,–,1.2,–,0.7,–,–,–,–,–,–,–,COc1ccccc1OCCNC(=O)CCl [compound 28]

# More lines, now with the values behind:
SMILES,isoTOP-ABPP ratio P78417_C32 [1]; 231,isoTOP-ABPP ratio P78417_C32 ([1]; ramos),isoTOP-ABPP ratio Q9Y277_C65 [2]; 231,isoTOP-ABPP ratio P31943_C267 [3]; 231,isoTOP-ABPP ratio P31943_C267 ([3]; ramos),isoTOP-ABPP ratio P24752_C119 [4]; 231,isoTOP-ABPP ratio P24752_C413 [4]; 231,isoTOP-ABPP ratio P24752_C119 ([4]; ramos),isoTOP-ABPP ratio P24752_C413 ([4]; ramos),isoTOP-ABPP ratio Q9BQ69_C186 [5]; 231,"isoTOP-ABPP ratio, P24752_C126 [4]; 231","isoTOP-ABPP ratio, P24752_C196 [4]; 231",isoTOP-ABPP ratio Q9NYL9_C132 [6]; 231,isoTOP-ABPP ratio Q9HAV7_C124 [7]; 231,"isoTOP-ABPP ratio, P24752_C126 ([4]; ramos)","isoTOP-ABPP ratio, P24752_C196 ([4]; ramos)",isoTOP-ABPP ratio Q9NYL9_C132 ([6]; ramos),isoTOP-ABPP ratio Q9BQ69_C186 ([5]; ramos),isoTOP-ABPP ratio Q9HAV7_C124 ([7]; ramos),isoTOP-ABPP ratio Q9Y277_C65 ([2]; ramos)
O=C(CCl)NC12CC3CC(CC(C3)C1)C2 [compound 21],–,–,2.9,1.5,–,1.6,1.5,–,–,1.4,1.4,1.5,1.4,1.7,–,–,–,–,–,–
O=C(CCl)N1CCN(CC(=O)N2CCOCC2)CC1 [compound 29],–,20.0,–,–,1.4,–,–,1.2,1.2,–,–,–,–,–,1.2,1.1,0.9,1.5,1.0,–
C=CC(=O)N(Cc1cccnc1)c1cc(C(F)(F)F)cc(C(F)(F)F)c1 [compound 31],0.8,2.6,–,0.7,0.9,0.6,1.0,0.7,–,0.5,0.7,–,0.7,–,–,–,0.7,–,–,1.0
CC1CCc2ccccc2N1C(=O)CCl (stereo not shown) [compound 45],1.9,–,–,3.6,–,12.4,20.0,–,–,3.3,–,–,0.9,2.1,–,–,–,–,–,–
O=C(CCl)Nc1cccc2ncccc12 [compound 51],–,–,–,1.3,–,0.7,1.1,–,–,1.2,–,–,0.8,–,–,–,–,–,–,–
